Source: publication PMC5000617, “Antiproliferative and Pro-Apoptotic Effect of Novel Nitro-Substituted Hydroxynaphthanilides on Human Cancer Cell Lines” (International Journal of Molecular Sciences, 2016)

Columns and labels:
[1] = Erythrosin B dye exclusion viability test, MCF-7; format: cell-based; details: human, MCF-7 cells; erythrosin B exclusion test, 24 h, mean ± SD; read-out: MCF-7 LC50
Protocol: (§1) Subsequently, for the comparison of the antiproliferative and cytotoxic effects we assessed the cell viability after 24 h treatment with compounds 1–6 in both tumour cell lines using the dye exclusion test.
(§2) THP-1 human monocytic leukemia cell line, MCF-7 human breast adenocarcinoma cells and 3T3-L1 mouse embryonic fibroblast were purchased from the European Collection of Cell Cultures (ECACC, Salisbury, UK). Cells were routinely tested for the absence of mycoplasma (Hoechst 33258 staining method). THP-1 cells were maintained in RPMI 1640 culture medium containing 2 mM L-glutamine; MCF-7 and 3T3-L1 cells were cultured in DMEM medium. All of the culture media were supplemented with 10% heat-inactivated FBS and antibiotics (100 U/mL penicillin and 100 μg/mL streptomycin). Cells were maintained at 37 °C in a humidified atmosphere containing 5% CO2.
(§3) Cell proliferation was evaluated using Cell Proliferation Reagent WST-1 (2-(4-iodophenyl)-3-(4-nitrophenyl)-5-(2,4-disulfophenyl)-2H-tetrazolium) (Roche Diagnostics, Mannheim, Germany) according to the manufacturer´s instructions. THP-1 (5 × 10^4 cells/100 μL culture medium per well), MCF-7 cells (1 × 10^4 cells/100 μL per well), and 3T3-L1 (2.5 × 10^3 cells/100 μL per well) were cultured in 96-well plates in triplicate. The measurement was performed using Synergy 2 Multi-Mode Microplate Reader (BioTek, Winooski, VT, USA) after 24 h incubation of cells with tested compounds dissolved in DMSO and subsequently in RPMI 1640 to final concentration ranging 0.5–20 μM in the assays. Cell viability was assessed by dye exclusion test. THP-1 (2 × 10^5 cells/mL per well) and MCF-7 cells (8 × 10^4 cells/mL per well) were incubated in 24-well plates with the indicated concentrations of compounds for 24 h. The number of viable cells was determined using hemocytometer after their staining with a solution of erythrosin B (0.1% erythrosin B (w/v) in PBS). The assays were conducted in triplicate. The IC50 and LC50 values were calculated from fitted concentration-response curves using GraphPad Prism 5.00 software (GraphPad Software, San Diego, CA, USA).

3T3-L1 cells = assay: WST-1 cell proliferation assay, 3T3-L1 non-tumour cells; format: cell-based, mouse; details: for IC50: Mus musculus, 3T3-L1, WST-1, 24 h, non-tumour cells, mean ± SD; for effect on cell proliferation: 3T3-L1, 24 h
Protocol: as §2, §3

[2] = Erythrosin B dye exclusion viability test, THP-1; format: cell-based; details: human, THP-1 cells; erythrosin B exclusion test, 24 h, mean ± SD; read-out: THP-1 LC50
Protocol: as §1, §2, §3

THP-1 cells [3] = assay: WST-1 cell proliferation assay, THP-1; format: cell-based, human; details: for IC50: Homo sapiens, THP-1, WST-1, 24 h, 0.5-20 μM, mean ± SD; for effect on cell proliferation: THP-1, 0.5-20 μM, 24 h
Protocol: (§4) Initially, we examined the effect of six nitro-substituted hydroxynaphthanilides on the proliferation of human leukaemia and breast carcinoma cell lines, using Water Soluble Tetrazolium Salts-1 (WST-1) assay. For such analyses, THP-1 and MCF-7 cells were treated with the compounds at concentrations ranging from 0.5 to 20 μM for 24 h. […] The inhibitory effect of 2 and 6 was statistically significant (p < 0.001) starting from the concentration of 2.5 and 5 μM in THP-1 and MCF-7 cells, respectively. From the concentration-response curves, the IC50 values were determined.
as §2, §3

MCF-7 cells [4] = assay: WST-1 cell proliferation assay, MCF-7; format: cell-based, human; details: for IC50: Homo sapiens, MCF7, WST-1, 24 h, 0.5-20 μM, mean ± SD; for effect on cell proliferation: MCF-7, 0.5-20 μM, 24 h
Protocol: as §4, §2, §3

MCF-7 cells [5] = assay: Erythrosin B dye exclusion viability test, MCF-7; format: cell-based
Protocol: as §1, §2, §3

THP-1 cells [6] = assay: Erythrosin B dye exclusion viability test, THP-1; format: cell-based
Protocol: as §1, §2, §3

MCF-7 cells [7] = assay: Flow cytometric cell cycle analysis (PI), MCF-7; format: cell-based, human; details: MCF-7, 24 h
Protocol: (§5) In order to determine at which stage of the cell cycle these compounds induce cell growth inhibition, flow cytometric analyses of cell cycle profiles in THP-1 and MCF-7 cell lines were performed. […] Therefore, THP-1 and MCF-7 cells were treated for 24 h with the compounds at concentrations of 2.5, 5, and 10 μM, respectively. In general, we detected a qualitatively similar effect on the distribution of cells in cell cycle phases following the treatment with compounds 2 and 6 in both leukaemia and breast carcinoma cells. […] This was in concert with a simultaneous decrease in the number of cells observed in the S phase compared to the drug-free control, while the percentage of cells in the G2/M phase remained unchanged.
(§6) THP-1 and sub-confluent MCF-7 cells were treated and subsequently incubated with indicated concentrations of compounds 2 and 6 for 24 h. After the incubation, cells were washed twice in PBS (pH 7.4), fixed in 70% ethanol and stored at −20 °C overnight. Fixed cells were collected by centrifugation, and supernatant was discarded. The cell pellet was washed twice with PBS and incubated with RNaseA (0.02 mg/mL) and 0.05% (v/v) Triton X-100 in PBS for 30 min at 37 °C. After the nuclei staining with propidium iodide (PI) (0.04 mg/mL), the cell cycle distribution was analysed using a flow cytometer Cell Lab Quanta SC (Beckman Coulter, Brea, CA, USA). The quantification of cell cycle distribution was carried out using software MultiCycle AV (Phoenix Flow System, San Diego, CA, USA). A total number of 2 × 10^4 cells was analysed per sample.

cyclin E1 [8] = assay: Western blot of cyclin E1 in MCF-7 cells; format: cell-based, human; details: MCF-7, 24 h
Protocol: (§7) Additionally, the cell cycle analysis allows determining the presence of a subdiploid cell population as a characteristic marker of cells with fractional DNA content. A significant increase (p < 0.001) of the sub-G1 peak was found only after the treatment with 5 µM of compound 2 in THP-1 cells, where an approximately eight-fold increase was observed compared to the drug-free control (Figure 4).
(§8) For Western blotting, cells were washed with PBS and lysed in lysis buffer (100 mM Tris-HCl, pH = 6.8; 20% glycerol; 1% SDS) containing protease and phosphatase inhibitor cocktails. Protein concentration was measured using Roti®-Quant universal (Carl Roth, Karsruhe, Germany) according to the manufacturer’s instructions. Cell lysates were supplemented with bromophenol blue (final concentration 0.01% (w/v)) and β-mercaptoethanol (final concentration 1% (v/v)) prior to being heated for 5 min at 95 °C. Equal amounts of protein (10 μg) were loaded into a 12% polyacrylamide gel, separated by SDS-polyacrylamide gel electrophoresis and subsequently electrotransferred onto nitrocellulose membranes. Reversible Ponceau S. staining was performed to assess equal sample loading. […] The intensity of bands was semi-quantitatively analysed using the ImageJ software (National Institute of Mental Health, Bethesda, MD, USA).

cyclin B1 [9] = assay: Western blot of cyclin B1 in MCF-7 cells; format: cell-based, human; details: MCF-7, 24 h
Protocol: as §7, §8

THP-1 cells [10] = assay: Flow cytometric cell cycle analysis (PI), THP-1; format: cell-based, human; details: THP-1, 24 h
Protocol: as §5, §6

cyclin B1 [11] = assay: Western blot of cyclin B1 in THP-1 cells; format: cell-based, human; details: THP-1, 24 h
Protocol: as §7, §8

cyclin E1 [12] = assay: Western blot of cyclin E1 in THP-1 cells; format: cell-based, human; details: THP-1, 24 h
Protocol: as §7
For Western blotting, cells were washed with PBS and lysed in lysis buffer (100 mM Tris-HCl, pH = 6.8; 20% glycerol; 1% SDS) containing protease and phosphatase inhibitor cocktails. Protein concentration was measured using Roti®-Quant universal (Carl Roth, Karsruhe, Germany) according to the manufacturer’s instructions. Cell lysates were supplemented with bromophenol blue (final concentration 0.01% (w/v)) and β-mercaptoethanol (final concentration 1% (v/v)) prior to being heated for 5 min at 95 °C. Equal amounts of protein (10 μg) were loaded into a 12% polyacrylamide gel, separated by SDS-polyacrylamide gel electrophoresis and subsequently electrotransferred onto nitrocellulose membranes. Reversible Ponceau S. staining was performed to assess equal sample loading. Then, the membranes were blocked with 5% non-fat dry milk in TBST (10 mM Tris-HCl pH = 7.5, 150 mM NaCl, 0.1% (v/v) Tween-20) and appropriate primary and secondary antibodies were used for immunodetection. The proteins were visualized by ECL Plus reagent according to the manufacturer’s instructions. The intensity of bands was semi-quantitatively analysed using the ImageJ software (National Institute of Mental Health, Bethesda, MD, USA).

THP-1 cells [13] = assay: Annexin V-FITC/PI apoptosis assay by flow cytometry, THP-1; format: cell-based, human; details: mean
Protocol: (§9) Staining of cells by Annexin V-FITC conjugate reflects the externalization of phosphatidylserine on the outer surface of the cell membrane as one of the early indicators of apoptosis.
(§10) Early and late stages of apoptosis were detected using Annexin V-FITC Kit—Apoptosis Detection Kit faccording to the manufacturer´s instructions. […] At each time-point of incubation (12, 18, and 24 h) the cells were washed with ice-cold PBS prior to being resuspended at a concentration of 5 × 10^6 cells/mL in a total volume of 100 μL of 1× binding buffer. Annexin V-FITC solution (final concentration 0.25 μg/mL) and PI (final concentration 12.5 μg/mL) were added to each sample; the cell suspension was kept on ice and incubated for 15 min in the dark. After that, the analysis was carried out by flow cytometry. The data were evaluated using Kaluza Flow Cytometry Analysis 1.2. Per sample, a total number of 2 × 10^4 cells were analysed.

[14] = as above; format: cell-based, human; details: human, THP-1 cells, THP-1, 5 μM, representative dot plot, read-out: quadrant I: viable cells
Protocol: as §9, §10

| SMILES | CC50 at 24 h [1] [µM] | IC50 (3T3-L1 cells) [µM] | CC50 at 24 h [2] [µM] | IC50 (THP-1 cells [3]) [µM] | effect on cell proliferation (THP-1 cells [3]) | IC50 (MCF-7 cells [4]) [µM] | effect on cell proliferation (MCF-7 cells [4]) | further results |
| --- | --- | --- | --- | --- | --- | --- | --- | --- |
| O=C(Nc1ccccc1[N+](=O)[O-])c1cc2ccccc2cc1O [Compound 1] | > 20 | > 20 | > 20 | > 20 | neither compound 1 nor 4 (both ortho-substituted derivatives) was able to induce the inhibition of cell growth | > 20 | neither compound 1 nor 4 (both ortho-substituted derivatives) was able to induce the inhibition of cell growth | – |
| O=C(Nc1ccc([N+](=O)[O-])cc1)c1cc2ccccc2cc1O [Compound 3] | 12.9 ± 1.98 | 4.41 ± 0.293 | 3.44 ± 1.21 | 1.05 ± 0.199 | inhibit cell growth in both cell lines in a dose-dependent manner | 1.65 ± 0.938 | inhibit cell growth in both cell lines in a dose-dependent manner | LC50 in comparison with IC50 (MCF-7 cells [5]; MCF-7 cells): approximately seven-fold; effect on cell proliferation (3T3-L1 cells): affected the proliferation of 3T3-L1 cells in a dose-dependent manner; LC50 compared to IC50 (THP-1 cells [6]): 2–3 fold |
| O=C(Nc1ccccc1[N+](=O)[O-])c1c(O)ccc2ccccc12 [Compound 4] | > 20 | > 20 | > 20 | > 20 | neither compound 1 nor 4 (both ortho-substituted derivatives) was able to induce the inhibition of cell growth | > 20 | neither compound 1 nor 4 (both ortho-substituted derivatives) was able to induce the inhibition of cell growth | – |
| O=C(Nc1cccc([N+](=O)[O-])c1)c1c(O)ccc2ccccc12 [Compound 5] | > 20 | > 20 | > 20 | > 20 | proliferation of THP-1 cells was not affected | > 20 | a 50% reduction in cell growth was not achieved | – |
| O=C(Nc1ccc([N+](=O)[O-])cc1)c1c(O)ccc2ccccc12 [Compound 6, 2-hydroxy-N-(4-nitrophenyl)-naphthalene-1-carboxamide] | > 20 | > 20 | 9.98 ± 0.349 | 5.8 ± 0.37 | inhibit cell growth in both cell lines in a dose-dependent manner | 5.23 ± 0.802 | inhibit cell growth in both cell lines in a dose-dependent manner | effect on cell viability (MCF-7 cells [5]; MCF-7, 24 h, vs control): Neither compound 2 nor 6 reduced cell viability under 50%; distribution of cells in cell cycle phases (MCF-7 cells [7]): induced accumulation of cells in G1 phase; sub-G1 / sub-diploid population (MCF-7 cells [7]): no significant increase of sub-diploid population; expression of cyclin E1 (cyclin E1 [8]): dose-dependent decrease in expression of cyclin E1; effect on cell proliferation (3T3-L1 cells): did not decrease cell growth at any of concentrations used; LC50 compared to IC50 (THP-1 cells [6]): 2–3 fold; total protein levels of cyclin B1 (cyclin B1 [9]): total protein levels of cyclin B1 were not changed; concentration from which the inhibitory effect on proliferation was statistically significant (p < 0.001) (THP-1 cells [3]; THP-1, 24 h): 2.5 µM; distribution of cells in cell cycle phases (THP-1 cells [10]): induced accumulation of cells in G1 phase; sub-G1 / sub-diploid population (THP-1 cells [10]): no significant increase of sub-diploid population; total protein levels of cyclin B1 (cyclin B1 [11]): total protein levels of cyclin B1 were not changed; concentration from which the inhibitory effect on proliferation was statistically significant (p < 0.001) (MCF-7 cells [4]; MCF-7, 24 h): 5 µM; expression of cyclin E1 (cyclin E1 [12]): dose-dependent decrease in expression of cyclin E1; levels of cyclin E1 low molecular weight (LMW E1) isoform (cyclin E1 [12]): more pronounced reduction of LMW E1 isoform levels |
| CC[C@@]1(O)C(=O)OCc2c1cc1n(c2=O)Cc2cc3ccccc3nc2-1 [camptothecin, reference compound] | – | – | – | – | – | – | – | early apoptotic cells (THP-1 cells [13]; THP-1, 5 µM, 12 h): 21.28%; late apoptotic cells (THP-1 cells [13]; THP-1, 5 µM, 12 h): 24.10%; early apoptotic cells (THP-1 cells [13]; THP-1, 5 µM, 24 h): 9.65%; late apoptotic cells (THP-1 cells [13]; THP-1, 5 µM, 24 h): 33.08%; viability at 12 h, 5 µM ([14]; 12 h): 55.8%; viability at 18 h, 5 µM ([14]; 18 h): 53.8%; viability at 24 h, 5 µM ([14]; 24 h): 50.9% |
| N.N.[Cl][Pt][Cl] [cisplatin, reference compound] | – | – | – | – | – | – | – | early apoptotic cells (THP-1 cells [13]; THP-1, 10 µg/mL, 24 h): 44.38% |
